Source: US11980607B2, “Methods of treating malignant lymphoproliferative disorders” (Actuate Therapeutics Inc., priority 2018, dated 2024)

Legend:
[1] = system: Caspase 3/7 activity in lymphoma cells; test: EnzChek Caspase 3 assay; assay type: cell-based; details: 24 hours
Description: An EnzChek caspase 3 assay (Thermo Fisher Scientific) was performed in accordance with the manufacturer's instructions. 100,000 cells were plated in a 12-well plate and treated with varying concentrations of 9-ING-41 for 24 hours in duplicate. At the end of treatment, cells were centrifuged at 200 rcf for 5 minutes and washed once with 1× PBS and lysed in 50 μL of 1× lysis buffer provided by the kit. For efficient lysis, cells were subjected to a single freeze-thaw cycle. The lysed cells were centrifuged again to remove cell debris, and the supernatant was used in the assay. 50 μL of 2× substrate working solution containing Z-DEVD-R110 substrate was added to the cell lysate, with a subsequent incubation at room temperature for 45 minutes. […] Both of these products were then measured using a Biotek synergy 2 fluorescent plate reader at corresponding wavelengths (excitation 496 nm/emission 520 nm). The fluorescent reading was normalized to the amount of protein in the cell lysate as determined via standard BCA assay (Pierce Thermo Fisher Scientific). Relative fluorescence was calculated after setting the no-treatment control to 1. […]

[2] = system: TCL and MCL lines; test: Thymidine incorporation assay in TCL and MCL lines; assay type: cell-based, human; details: 9-ING-41 concentrations as low as 1.0 μM
Description: Unstimulated peripheral blood B- and T-lymphocytes isolated from a healthy donor were used as normal control. Pro-apoptotic effect of the GSK3 inhibitor 9-ING-41 in various MCL and TCL lines (A) and DLBCL lines (B). (C) Cell proliferation profile of various lymphoma cell lines upon treatment with 9-ING-41. Results (A-C) are from 3 independent experiments.
Cells were seeded at 1×10^4 cells/well in 96 well plates, and incubated with 9-ING-41 at indicated concentrations for 48 hours followed by pulsing with tritium labeled thymidine for overnight before being analyzed for thymidine uptake.
9-ING-41 can specifically induce lymphoma cell apoptosis without affecting normal lymphocytes. The thymidine incorporation assay in the presence or absence of 9-ING-41 was performed to test the role of GSK3 in lymphoma cell proliferation. […] The DLBCL lines required slightly higher concentrations. The IC50 of 9-ING-41 on cell proliferation for various lymphoma cell lines was calculated (Table 1).

[3] = system: lymphoma cell lines (Jeko, Mino, OCI-Ly3); test: DNA cell cycle analysis; assay type: cell-based, human; details: after as little as 24 hours of treatment, all lines tested
Description: (B) Cell cycle profiles of parental Ly-1 cells and GSK3α, GSK3β, GSK-3αβ knockout subclones. Inset: Western blot image showing the depletion of GSK3α and GSK-3β protein in the knockout Ly-1 subclones.
Cells were fixed and permeabilized with cold ethanol, treated with RNase, and stained with propidium iodide (Sigma). Stained cells were run on a BD FACS Calibur using CELLQuest PRO Software (Becton Dickinson). Data were analyzed with FlowJo v.X software (Tree Star Inc).
The effect of 9-ING-41 on lymphoma cell cycle kinetics was examined. […] To further determine whether this G2/M arrest specifically resulted from GSK3β inhibition, the cell cycle profile of parental (wildtype), GSK3A, GSK3B, and GSK3A/B knockout Ly-1 subclones was examined. […] These cell cycle abnormalities of GSK3B-null and GSK3A/B-null Ly-1 cells are subtle and have little impact on the survival of the Ly-1 progeny, likely through Ly-1 cell line specific compensatory mechanisms.

[4] = system: Jeko cells; test: Mitotic stage morphology (Wright stain, differential counting); assay type: cell-based, human; details: 1.0 uM, 24 hours
Description: (A) Cartoon depiction of the sequential steps (M1-M5) during mitosis (purchased from Shutterstock and modified). (B). Representative Wright stain images of Jeko cells untreated and treated with 1.0 uM 9-ING-41 for 24 hours. […] (C). Bar chart showing the number of mitotic M1-M5 cells identified when 100 untreated or 9-ING-41 treated Jeko cells were counted.
Although cells arrested in G2/M appear as a single DNA content (4N) peak on a flow cytometry histogram (FIG. 6A), there are actually at least 5 sequential steps (M1-M5) in G2/M critical to successful cell division. These include prophase (M1, chromosome condensation, mitotic spindle formation starts), prometaphase (M2, nuclear membrane breakdown, centrosome polarization), metaphase (M3, chromosome pairs align middle plane), anaphase (M4, daughter chromatids separate), telophase (M5, reformation of daughter nuclei), and the final cytokinesis (separation of two daughter cells). Each of these discrete steps has a unique identifiable nuclear morphology on Wright's stained cells (depicted in FIG. 7A). The morphology of untreated and 9-ING-41 treated Jeko cells to determine at what stage they become arrested was examined. […] These observations support the conclusion that GSK3 activity is necessary for the progression of mitotic prophase.

[5] = system: Jeko derived xenograft; test: Jeko derived MCL xenograft mouse model; assay type: in vivo; details: NSG mice, 40 mg/kg every other day IP, day 17
Description: The images shown were collected at the end of the experiment (day 17). […] An MCL xenograft mouse model was established by subcutaneously injecting NGS mice with Jeko cells expressing the firefly luciferase reporter gene Fluc. NSG (NOD.Cg-PrkdcscidIl2rgtm1Wjl/SzJ) mice used in these experiments were purchased from the Jackson Laboratory (Bar Harbor, Maine). Eight to ten mice of same sex at 8 weeks of age were subcutaneously injected with 5×10^6 Fluc expressing Jeko cells in the right flanks. Tumor engraftment was verified by imaging 4 days after Jeko cell inoculation. […] Tumor volumes were measured by an IVIS Imager (Xenogen, Alameda, CA) 20 minutes after IP injection of 200 ul of 15 mg/ml D-leuciferin (GoldBio, St. Louis, MO) and anesthetized with 2.5% isoflurane. All imaging variables were kept consistent for comparativeness. The experiment terminated when the largest tumor met the size limit of the IACUC protocol.

[6] = system: Mantle Cell lymphoma; test: Treatment of Mantle Cell Lymphoma in a human; assay type: in vivo; details: 3 mg/kg per day, six 21 day cycles
Description: A human suffering from Mantle Cell lymphoma is administered 3 mg/kg per day of 9-ING-41 for six 21 day cycles. After treatment, the human's MCL is in remission.

SMILES: Cn1cc(C2=C(c3coc4ccc(F)cc34)C(=O)NC2=O)c2cc3c(cc21)OCO3 [9-ING-41, 3-(5-Fluorobenzofuran-3-yl)-4-(5-methyl-5H-[1,3]dioxolo[4,5-f]indol-7-yl)pyrrole-2,5-dione]
- Concentration giving an increase in Caspase 3/7 activity [1]: ≥ 0.5 µM
- Proliferation rate of all TCL and MCL lines [2]: profoundly inhibited
- Cell cycle effect [3]: cell cycle blockage at G2/M
- Mitotic stages seen among 100 mitotic cells [4]: only prophase (M1) cells
- Tumor size and luciferase activity versus control [5]: smaller tumors with much lower luciferase activity
- Outcome after treatment [6]: in remission
